Assay results published in the CheMixHub ionic liquid set.

Experiment: xn = mol fraction of the nth substance listed

CCCC[n+]1ccn(C)c1.F[P-](F)(F)(F)(F)F + Cc1ccccc1
101 kPa
Conditions | viscosity [mPa·s]
298.15 K, x2 = 0.05 | 172.6
300.65 K, x2 = 0.2 | 74.9
300.65 K, x2 = 0.4 | 31.2
303.15 K, x2 = 0.1 | 73.3
303.15 K, x2 = 0.3 | 39.5
305.65 K, x2 = 0.3 | 32.5
308.15 K, x2 = 0.3 | 27.6
310.65 K, x2 = 0.1 | 39.8
313.15 K, x2 = 0.4 | 14.12
318.15 K, x2 = 0.3 | 17.56
320.65 K, x2 = 0.3 | 16.21
320.65 K, x2 = 0.4 | 11.32
328.15 K, x2 = 0.05 | 27.7
330.65 K, x2 = 0.05 | 26
335.65 K, x2 = 0.4 | 8.8
338.15 K, x2 = 0.05 | 22.02

CCCC[n+]1ccn(C)c1.F[P-](F)(F)(F)(F)F + CC(C)=O
Conditions | electrical conductivity [S/m] | viscosity [mPa·s]
296.15 K, 101 kPa, x2 = 0 | 0.15 | –
296.15 K, 101 kPa, x2 = 0.9195 | 3.84 | –
298.15 K, 101 kPa, x2 = 0.4972 | 1.28 | 14.7
298.15 K, 101 kPa, x2 = 0.7839 | 2.86 | 2.05
298.15 K, 101.3 kPa, x2 = 0.4485 | – | 18.46
298.15 K, 101.3 kPa, x2 = 0.6007 | – | 6.96
298.15 K, 101.3 kPa, x2 = 0.8058 | – | 1.648

CC[n+]1ccn(C)c1.O=S(=O)([O-])O + O=C([O-])CC(O)(CC(=O)[O-])C(=O)[O-].[Li+].[Li+].[Li+] + O
viscosity [mPa·s], 101 kPa
Conditions | 293.15 K | 298.15 K | 303.15 K | 308.15 K | 313.15 K
x2 = 0, x1 = 0.0006645 | 1.023 | 0.93 | 0.823 | 0.75 | 0.674
x2 = 0, x1 = 0.0007293 | 1.036 | 0.943 | 0.825 | 0.749 | 0.689
x2 = 0, x1 = 0.0009254 | 1.064 | 0.943 | 0.844 | 0.763 | 0.683

CCCCCC[n+]1ccn(C)c1.F[P-](F)(F)(F)(F)F + CCCCCC[n+]1ccn(C)c1.[Cl-]
101 kPa
Conditions | electrical conductivity [S/m] | viscosity [mPa·s]
303 K, x2 = 0.6 | 0.0103 | –
303 K, x2 = 0.8 | 0.00536 | –
303.15 K, x2 = 0.2 | – | 960
303.15 K, x2 = 0.4 | – | 1853
308 K, x2 = 0.4 | 0.0299 | –
308 K, x2 = 0.8 | 0.00862 | –
308.15 K, x2 = 0 | – | 360
313 K, x2 = 0 | 0.13 | –
313 K, x2 = 0.4 | 0.0424 | –
318 K, x2 = 0.6 | 0.0337 | –
318.15 K, x2 = 0.4 | – | 600
323.15 K, x2 = 0.6 | – | 710
328 K, x2 = 0 | 0.26 | –
328 K, x2 = 0.8 | 0.0419 | –
328.15 K, x2 = 0.2 | – | 205

CCOC(C)=O + CC[n+]1ccn(C)c1.O=S(=O)([N-]S(=O)(=O)C(F)(F)F)C(F)(F)F
Conditions | viscosity [mPa·s]
303.15 K, 100 kPa, x1 = 1 | 0.39

CCCC[n+]1ccn(C)c1.O=S(=O)([N-]S(=O)(=O)C(F)(F)F)C(F)(F)F + CO
296.35 K, 100 kPa, frequency 0.01 MHz
Conditions | electrical conductivity [S/m]
x1 = 0.008978 | 1.5
x1 = 0.01434 | 2.51
x1 = 0.02356 | 3.1
x1 = 0.04259 | 4.63
x1 = 0.08668 | 4.31

Conditions | electrical conductivity [S/m] | viscosity [mPa·s]
298 K, 100 kPa, x1 = 0.05 | – | 1.017
298 K, 100 kPa, x1 = 0.1927 | – | 3.181
298 K, 100 kPa, x1 = 0.2796 | – | 5.166
298 K, 100 kPa, x1 = 0.6962 | – | 23.01
298 K, 100 kPa, x1 = 1 | – | 49.7
298 K, 101 kPa, x2 = 0.3686 | 0.596 | –
298 K, 101 kPa, x2 = 0.4819 | – | 13.83
298 K, 101 kPa, x2 = 0.7921 | 2.43 | –
298.15 K, 100 kPa, x2 = 0.0986 | – | 42.43
298.15 K, 100 kPa, x2 = 0.7056 | – | 8.01
303.15 K, 100 kPa, x2 = 0 | – | 40.54
303.15 K, 100 kPa, x2 = 0.0986 | – | 34.9
303.15 K, 100 kPa, x2 = 0.4004 | – | 18.48
318.15 K, 100 kPa, x2 = 0.0986 | – | 20.96
318.15 K, 100 kPa, x2 = 0.295 | – | 14.8
318.15 K, 100 kPa, x2 = 0.4923 | – | 9.36
318.15 K, 100 kPa, x2 = 0.7056 | – | 4.52
323.15 K, 100 kPa, x2 = 0.7056 | – | 4.24
323.15 K, 100 kPa, x2 = 0.8978 | – | 1.12

CN(C)C=O + CCCCCCCCn1cc[n+](C)c1.N#C[S-]
101 kPa, x2 = 0
Conditions | viscosity [mPa·s]
293.15 K | 0.881
303.15 K | 0.771
313.15 K | 0.668
323.15 K | 0.605
333.15 K | 0.553
353.15 K | 0.479
363.15 K | 0.447

CCCC[n+]1ccn(C)c1.F[P-](F)(F)(F)(F)F + CCCC[n+]1ccn(C)c1.F[B-](F)(F)F
101 kPa
Conditions | viscosity [mPa·s]
298.15 K, x1 = 0.1034 | 116.1
298.15 K, x1 = 0.833 | 227
298.15 K, x1 = 0.8877 | 237
299.15 K, x1 = 0.1034 | 110.2
299.15 K, x1 = 0.2095 | 121.3
299.15 K, x1 = 1 | 259
301.15 K, x1 = 0.0568 | 91.6
301.15 K, x1 = 0.1034 | 99.5
301.15 K, x1 = 1 | 232
302.15 K, x1 = 0.0568 | 87.1
302.15 K, x1 = 0.3825 | 118.8
302.15 K, x1 = 0.4647 | 124.4
303.15 K, x1 = 0.0568 | 82.9
305.15 K, x1 = 0.6928 | 136.5
305.15 K, x1 = 0.945 | 166.1
307.15 K, x1 = 0.3825 | 92.5
307.15 K, x1 = 0.833 | 136.1
307.15 K, x1 = 0.945 | 149.7
308.15 K, x1 = 0.2095 | 77.4
308.15 K, x1 = 0.3825 | 88.1
308.15 K, x1 = 0.5385 | 98.8
308.15 K, x1 = 1 | 156

CN1CCCC1=O + CCCCCCCCn1cc[n+](C)c1.[Cl-]
100 kPa, x1 = 1
Conditions | viscosity [mPa·s]
293.15 K | 1.853
318.15 K | 1.259
